Experimental data published in paper PMC4303146, “Investigation of cyanine dyes for in vivo optical imaging of altered mitochondrial membrane potential in tumors” (Cancer Medicine, 2014).

How the values were obtained:
[1] = parameters: method as in PMID 21469142; conditions: cited from earlier work
[2] = Photophysical properties (fluorescence spectroscopy, quantum yield); format: physicochemical
Protocol: IC7-1 derivatives were dissolved in chloroform or 5% FBS to give a concentration of 1 μmol/L for fluorescence spectroscopy analysis. Excitation spectra were measured following the emission at 850 nm, and emission spectra were measured following excitation at 823 nm. Quantum yields were determined using a Fluorolog-3 spectrofluorometer equipped with an integrating sphere.

[3] = biological target: T1, albumin-binding site I (warfarin-binding site) (Bos taurus, UniProt P02769); test: Protein-binding assay with competitive inhibitors in 5% FBS; format: in vitro ADME, bovine
T1 construct: incubated for 30 min in PBS (pH 7.4) containing 5% DMSO and 5% FBS; from tissue; host or cells: fetal bovine serum (5% in PBS)
Protocol: A protein-binding assay was conducted as reported previously. Briefly, warfarin, ibuprofen, digoxin, and quinidine were used as competitive inhibitors of albumin-binding sites I, II, III, and […], respectively. The inhibitors (0 and 189 μmol/L) were incubated for 30 min in PBS (pH 7.4) containing 5% DMSO and 5% FBS at room temperature. Immediately after the addition of the IC7-1 derivative (1 μmol/L final concentration), the fluorescence intensity was measured following the excitation at 823 nm and the emission from 840 to 900 nm. The normalized intensity (%) was calculated as a percentage of fluorescence intensity obtained from an inhibitor untreated sample.

HeLa cells [4] = test: Cellular localization study (fluorescence microscopy with NAO mitochondria marker); format: cell-based, human; conditions: 1 μmol/L, 60 min, NAO 100 nmol/L
Protocol: HeLa cells (3 × 10^5 cells) were cultured in a poly-L-lysine coated glass bottom dish for 24 h at 37°C before use. Cells were washed twice with phosphate-buffered saline (PBS) and then incubated with the IC7-1 derivative dissolved in dimethyl sulfoxide (DMSO) (1 μmol/L final concentration) in DMEM supplemented with 5% FBS and 1% penicillin and streptomycin for 60 min. To determine the dye localization, mitochondria were labeled with NAO (100 nmol/L final concentration) for 20 min before completion of the incubation with IC7-1 derivative. Next, the cells were washed twice each with DMEM and PBS. Cells were viewed with a fluorescence microscope under a 100× oil-immersion objective lens. MetaMorph® software (Molecular Devices, LLC, Sunnyvale, CA) was used for imaging analysis.

HeLa cell xenograft [5] = test: In vivo imaging study in HeLa cell xenograft mice
Protocol: Animal experiments were conducted in accordance with institutional guidelines and were approved by the Kyoto University Animal Care Committee. […] HeLa cells (2 × 10^6 cells in 100 μL of PBS) were subcutaneously inoculated into the right hind legs of mice. Fourteen days after implantation, mice were used for the imaging study.
Clairvivo® OPT measurement and display software ver. 2.6.0.0. (SHIMADZU Co.) was used for imaging analysis.
Exposure time was 5s for the scan at 3 h, and 3s for the other scans. Clairvivo® OPT measurement and display software ver. 2.6.0.0. (SHIMADZU Co., Kyoto, Japan) was used for imaging analysis.

HeLa cell xenograft [6] = test: In vivo blocking study with protein-binding inhibitor warfarin; parameters: species or system mice
Protocol: (§1) Animal experiments were conducted in accordance with institutional guidelines and were approved by the Kyoto University Animal Care Committee. Female nude mice (BALB/c nu/nu 4-weeks old), supplied by Japan SLC, Inc. (Shizuoka, Japan), were housed under a 12 h light/12 h dark cycle and were given free access to food (D10001) and water. HeLa cells (2 × 10^6 cells in 100 μL of PBS) were subcutaneously inoculated into the right hind legs of mice. Fourteen days after implantation, mice were used for the imaging study.
An in vivo blocking study using a protein-binding inhibitor was conducted as reported previously. Briefly, IC7-1-Bu (10 nmol, 100 μL) and warfarin (5.5 μmol, 100 μL) were simultaneously administered to mice via the tail vein, and the mice were imaged using the same method as described above.

HeLa cell xenograft [7] = test: In vivo blocking study with uncoupler CCCP; parameters: species or system mice; conditions: intratumoral CCCP 0.25 mg/kg, imaged 1 and 3 h
Protocol: as §1
In the in vivo blocking study using an uncoupler, IC7-1-Bu (10 nmol, 100 μL) was administered to tumor-bearing mice via the tail vein immediately after intratumoral injection of CCCP (2.5 mL/kg, 0.25 mg/kg). Mice were imaged 1 and 3 h after administration of the imaging agent using the same method as described above.

BSA = BSA (Bos taurus, UniProt P02769); test: Association constants of IC7-1 derivatives to albumin (fluorimetric titration); format: binding, bovine; conditions: dye 1 µM, BSA 0-1.0 µM, 30 min; read-out: Ka, association constant of dye-albumin complex (converted)
Protocol: Binding studies of IC7-1 derivatives to albumin were conducted as reported previously (Beckford G et al. The solvatochromic effects of side chain substitution on the binding interaction of novel tricarbocyanine dyes with human serum albumin. Talanta 2012;92: 45-52). Briefly, IC7-1 derivatives (1 µM final concentration) were incubated with BSA (0, 0.4, 0.6, 0.8, and 1.0 µM) for 30 min to equilibrate. The fluorescence intensity was measured following the excitation at 823 nm and the emission from 840 to 900 nm. The interaction between dye D and albumin A can be expressed by Eq. 1:
The association constant for the dye-albumin complex formation can be expressed by Eq. 2:
Then, the association constant Ka of the dye-albumin complex was calculated from the data for the fluorimetric titration of the dye with albumin using Eq. 3:
1/ΔF = 1/k[D] + (1/(k[D]Ka))·(1/[A]) (3)
where k is a constant depending on the instrumentation and quantum efficiency of the process.
Therefore, a plot of the reciprocal of ΔF versus the reciprocal of albumin concentration gives a straight line. The association constant was calculated by dividing the intercept by the slope of the line.

HeLa cells [8] = test: Cellular uptake study with uncoupler CCCP; format: cell-based, human; conditions: dye 1 μmol/L, 60 min, CCCP 0-25 μmol/L
Protocol: A cellular uptake study was conducted as reported previously. Briefly, the buffer solution (pH 7.4) for the cellular uptake study was composed of NaCl ([…]), KCl (5.4 mmol/L), CaCl2 (1.2 mmol/L), MgSO4 (0.8 mmol/L), NaH2PO4 (0.8 mmol/L), dextrose (5.6 mmol/L), and 4-(2-hydroxyethyl)-1-piperazineethanesulfonic acid) (5 mmol/L). HeLa cells (1 × 10^6 cells/mL buffer solution) were incubated with carbonyl […] m-chlorophenylhydrazone (CCCP; 0, 0.1, 0.25, 0.5, 0.75, 1, 2.5, 5, 10, and 25 μmol/L) for 5 min at 37°C in 1.5 mL microtubes, followed by the addition of the IC7-1 derivative (1 μmol/L final concentration). After a 60-min incubation with the IC7-1 derivative, the cells were washed twice and resuspended with buffer solution. The fluorescence intensity was measured following the excitation at 823 nm and the emission from 840 to 900 nm, and the normalized intensity (%) was calculated as a percentage of fluorescence intensity obtained with CCCP untreated (0 μmol/L) cells.
The buffer solution (pH 7.4) for the cellular uptake study was composed of NaCl (145 mM), KCl (5.4 mM), CaCl2 (1.2 mM), MgSO4 (0.8 mM), NaH2PO4 (0.8 mM), dextrose (5.6 mM), and HEPES (5 mM). The HeLa cells (1 x 10^6 cells / ml buffer solution) were incubated with an uncoupler (CCCP; 0, 0.1, 0.25, 0.5, 0.75, 1, 2.5, 5, 10, and 25 µM) for 5 min at 37 °C in 1.5 mL microtubes, followed by the addition of IR-780 or IC7-1-Bu (1 µM final concentration) After a 60 min incubation with the dyes, the cells were washed twice and resuspended with buffer solution. Fluorescence intensity was measured following the excitation at 763 nm and the emission from 780 to 880 nm for IR-780, and the excitation at 823 nm and the emission from 840 to 900 nm for IC7-1-Bu. The normalized intensity (%) was calculated as a percentage of fluorescence intensity obtained with CCCP untreated (0 µM) cells.

T1 sequence (P02769 25-607): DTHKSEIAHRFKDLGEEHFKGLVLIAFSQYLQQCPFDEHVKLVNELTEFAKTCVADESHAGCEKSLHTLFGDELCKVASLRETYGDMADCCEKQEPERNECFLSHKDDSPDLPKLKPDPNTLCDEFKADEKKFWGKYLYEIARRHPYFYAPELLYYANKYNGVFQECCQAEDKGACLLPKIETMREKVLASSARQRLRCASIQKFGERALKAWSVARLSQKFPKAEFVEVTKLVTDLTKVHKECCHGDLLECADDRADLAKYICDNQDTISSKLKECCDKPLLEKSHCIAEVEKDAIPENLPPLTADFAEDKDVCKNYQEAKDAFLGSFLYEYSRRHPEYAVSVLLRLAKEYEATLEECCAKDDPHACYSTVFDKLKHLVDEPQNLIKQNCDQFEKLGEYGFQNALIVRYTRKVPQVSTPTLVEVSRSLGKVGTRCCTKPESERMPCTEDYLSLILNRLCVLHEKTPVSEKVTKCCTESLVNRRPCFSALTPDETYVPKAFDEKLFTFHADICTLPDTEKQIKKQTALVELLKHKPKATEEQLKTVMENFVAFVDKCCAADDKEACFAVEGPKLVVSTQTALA
Chain of BSA (P02769 25-607): as above

## CC1(C)C(/C=C/C=C/C=C/C=C2\N(CCCCS(=O)(=O)O)c3ccc4ccccc4c3C2(C)C)=[N+](CCCCS(=O)(=O)[O-])c2ccc3ccccc3c21 [ICG, indocyanine green]
[1]
  Clearance and tumor accumulation after i.v. administration: rapid clearance through the liver into feces with low accumulation in tumors

## CCCCN1/C(=C/C=C2\CCCC(/C=C/C3=[N+](CCCC)c4ccc5ccccc5c4C3(C)C)=C2Cl)C(C)(C)c2c1ccc1ccccc21 [IC7-1-Bu, 3-Butyl-2-(2-{3-[2-(3-butyl-1,1-dimethyl-1,3-dihydro-benz[e]indol-2-ylidene)-ethylidene]-2-chloro-cyclohex-1-enyl}-vinyl)-1,1-dimethyl-1H-benz[e]indolium]
[2]; 5% FBS
  Φ, quantum yield: 0.04
  ε, extinction coefficient: 130000 mol/L/cm
[2]; 5% FBS, 1 μmol/L
  emmax, maximum emission wavelength: 849 nm
  exmax, maximum excitation wavelength: 823 nm
[2]; CHCl3
  Φ, quantum yield: 0.06
  ε, extinction coefficient: 330000 mol/L/cm
[2]; CHCl3, 1 μmol/L
  emmax, maximum emission wavelength: 845 nm
  exmax, maximum excitation wavelength: 823 nm
[3]; 5% FBS vs 0% FBS
  Absorbance peak and fluorescence in 5% FBS versus 0% FBS solution: significantly higher in 5% FBS solution than in 0% FBS solution
[3]; 5% FBS, inhibitor 189 μmol/L, dye 1 μmol/L
  Normalized fluorescence intensity with warfarin (albumin site I inhibitor): specifically bound to albumin
[3]; FBS solution
  Absorbance peak: 836 nm
HeLa cells [4]
  Subcellular localization of NIR fluorescence: colocalized fluorescence with NAO
HeLa cell xenograft [5]; 10 nmol i.v.
  Retention of tumor fluorescence after i.v. administration: 72 h
  Tumor fluorescence intensity group from ROI analysis: high intensity group
HeLa cell xenograft [5]; 10 nmol i.v., 24, 48 and 72 h
  Fluorescence intensity at the tumor region: strong fluorescence intensity at the tumor region up to 72 h
  Tumor depiction in fluorescence images: Tumors were clearly depicted
HeLa cell xenograft [6]; IC7-1-Bu 10 nmol + warfarin 5.5 μmol i.v., 24-72 h
  Fluorescence intensity after co-administration of warfarin: diminished throughout the body
HeLa cell xenograft [6]; warfarin (+), after 1 day
  Tumor to neck fluorescence ratio: 2.36 ± 0.09
HeLa cell xenograft [6]; warfarin (+), after 2 day
  Tumor to neck fluorescence ratio: 2.49 ± 0.10
HeLa cell xenograft [6]; warfarin (+), after 3 day
  Tumor to neck fluorescence ratio: 2.46 ± 0.09
HeLa cell xenograft [6]; warfarin (−), after 1 day
  Tumor to neck fluorescence ratio: 1.94 ± 0.11
HeLa cell xenograft [6]; warfarin (−), after 2 day
  Tumor to neck fluorescence ratio: 2.02 ± 0.15
HeLa cell xenograft [6]; warfarin (−), after 3 day
  Tumor to neck fluorescence ratio: 2.07 ± 0.48
HeLa cell xenograft [7]
  Fluorescence intensity at the tumor after CCCP pretreatment: significantly decreased by CCCP pretreatment
BSA
  Kd: 476 nM
HeLa cells [8]
  Normalized cellular fluorescence intensity under CCCP treatment: reduced cellular fluorescence from treatment with a low CCCP concentration
